# Data taken from BindingDB's records for doi:10.1016/0960-894X(95)00040-Z (1995).
# Experiment: Compound was tested for inhibitory activity against prostaglandin synthetase in mouse brain microsomes
smiles,measurement,value
C1=C(CCN2CCOCC2)c2ccccc2/C1=C/c1ccccc1 [4-(2-{3-[1-Phenyl-meth-(E)-ylidene]-3H-inden-1-yl}-ethyl)-morpholine],IC50,20 µM
